The values below come from patent publication US20240246932A1 (Merck Sharp & Dohme LLC, priority 2021, published 2024).

This test has as its target human NaV 1.8 channels stably expressed in HEK 293 cells (Homo sapiens (Human), UniProt Q9Y5Y9). Description: Nav1.8 Qube automated patch-clamp assay. Format: cell-based. Conditions: human NaV1.8 in HEK 293 cells, whole-cell voltage clamp, room temperature; read-out: IC50 values (nM) for Examples in the Nav1.8 Qube Assay. An outline of the steps:
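Whole-cell voltage clamp at room temperature on HEK293 cells; from −90 mV, a 10 s 1 Hz train of 20 ms pulses to 10 mV (repolarising to −67 mV) was applied. Peak currents at pulses 1 and 10 gave resting- and inactivated-state inhibition; IC50 fitted by Hill equation. Internal CsF/CsCl buffer.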

The term IC50 denotes the concentration that inhibits the measured activity by half.

Sequence of human NaV 1.8 channels stably expressed in HEK 293 cells (Q9Y5Y9 whole entry): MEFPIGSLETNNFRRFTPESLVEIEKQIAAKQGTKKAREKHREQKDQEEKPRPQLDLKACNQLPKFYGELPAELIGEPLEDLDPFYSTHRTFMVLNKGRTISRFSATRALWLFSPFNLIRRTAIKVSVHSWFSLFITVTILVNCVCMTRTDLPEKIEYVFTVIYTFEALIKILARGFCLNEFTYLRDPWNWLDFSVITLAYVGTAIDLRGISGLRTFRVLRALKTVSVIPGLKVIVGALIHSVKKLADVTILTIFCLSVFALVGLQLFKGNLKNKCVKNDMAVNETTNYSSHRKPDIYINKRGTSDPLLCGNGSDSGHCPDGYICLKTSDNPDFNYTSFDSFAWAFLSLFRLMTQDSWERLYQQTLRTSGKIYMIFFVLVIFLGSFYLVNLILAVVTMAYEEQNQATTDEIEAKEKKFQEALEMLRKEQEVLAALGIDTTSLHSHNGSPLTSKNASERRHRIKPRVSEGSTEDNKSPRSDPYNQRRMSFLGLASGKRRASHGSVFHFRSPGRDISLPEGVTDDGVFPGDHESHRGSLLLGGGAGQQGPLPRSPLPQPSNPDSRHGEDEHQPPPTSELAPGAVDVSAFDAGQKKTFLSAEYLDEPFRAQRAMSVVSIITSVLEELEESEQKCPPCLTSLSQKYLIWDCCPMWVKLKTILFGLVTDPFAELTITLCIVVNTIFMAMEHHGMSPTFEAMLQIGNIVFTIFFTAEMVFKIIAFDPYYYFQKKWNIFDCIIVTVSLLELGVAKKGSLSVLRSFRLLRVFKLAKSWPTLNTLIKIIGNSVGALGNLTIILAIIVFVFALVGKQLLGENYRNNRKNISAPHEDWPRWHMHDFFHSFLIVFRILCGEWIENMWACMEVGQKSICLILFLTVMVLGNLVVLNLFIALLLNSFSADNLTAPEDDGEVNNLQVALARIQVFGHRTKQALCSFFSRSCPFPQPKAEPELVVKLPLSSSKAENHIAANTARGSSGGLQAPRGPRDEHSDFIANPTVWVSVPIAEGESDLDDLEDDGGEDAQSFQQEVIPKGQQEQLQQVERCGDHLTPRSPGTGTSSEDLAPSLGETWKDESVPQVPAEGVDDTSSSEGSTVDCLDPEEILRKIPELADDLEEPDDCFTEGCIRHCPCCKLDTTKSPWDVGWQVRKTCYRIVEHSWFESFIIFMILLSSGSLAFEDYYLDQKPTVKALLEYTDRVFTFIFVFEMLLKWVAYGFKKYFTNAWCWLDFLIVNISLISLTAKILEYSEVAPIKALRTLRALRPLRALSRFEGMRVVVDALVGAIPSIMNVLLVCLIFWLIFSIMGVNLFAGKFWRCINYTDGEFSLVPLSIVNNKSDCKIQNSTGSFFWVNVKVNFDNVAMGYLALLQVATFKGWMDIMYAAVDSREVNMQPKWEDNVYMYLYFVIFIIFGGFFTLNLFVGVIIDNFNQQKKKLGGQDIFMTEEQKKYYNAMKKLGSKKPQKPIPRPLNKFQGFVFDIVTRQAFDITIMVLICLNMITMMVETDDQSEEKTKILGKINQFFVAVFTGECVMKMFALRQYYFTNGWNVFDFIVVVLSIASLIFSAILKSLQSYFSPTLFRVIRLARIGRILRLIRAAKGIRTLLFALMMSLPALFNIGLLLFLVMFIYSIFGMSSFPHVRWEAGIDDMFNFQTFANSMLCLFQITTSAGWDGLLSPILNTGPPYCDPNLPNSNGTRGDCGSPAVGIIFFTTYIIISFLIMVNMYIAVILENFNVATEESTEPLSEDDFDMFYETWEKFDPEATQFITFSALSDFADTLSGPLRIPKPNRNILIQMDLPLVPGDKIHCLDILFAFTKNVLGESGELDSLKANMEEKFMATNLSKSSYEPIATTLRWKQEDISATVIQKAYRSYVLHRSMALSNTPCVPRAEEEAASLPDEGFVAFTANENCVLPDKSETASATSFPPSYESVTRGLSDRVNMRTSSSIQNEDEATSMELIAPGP

On to `C[C@@H]1C(=O)NCCN1C(=O)NC(c1ccc(OC(F)(F)F)c(F)c1)c1ccc(C#N)c(C(F)(F)F)n1` (single isomer, unassigned) [Example 61B], for which the IC50 was 3.83 nM.
For the compound `O=C1NCCN(C(=O)NC(c2ccc(C(F)(F)F)nc2)c2ccc(F)c(Cl)c2F)C1C1CC1` (single isomer, unassigned) [Example 38A, N—((R or S)-(3-chloro-2,4-difluorophenyl)(6-(trifluoromethyl)pyridin-3-yl)methyl)-(R)-2-cyclopropyl-3-oxopiperazine-1-carboxamide], the IC50 came out at 559 nM.
Under `C[C@@H]1C(=O)NCCN1C(=O)NC(c1ccc(OC2CC2)c(F)c1)c1cnc(C(F)(F)F)c(Cl)c1` (single isomer, unassigned) [Example 25A, (2R)-N-((R or S)-(5-chloro-6-(trifluoro-methyl)pyridin-3-yl)(4-cyclopropoxy-3-fluorophenyl)methyl)-2-methyl-3-oxopiperazine-1-carboxamide] stands 3.51 nM; under `C[C@@H]1C(=O)NCCN1C(=O)NC(c1cnc(OCC(F)(F)F)c(F)c1)c1ccc(F)c(C(F)(F)F)n1` (single isomer, unassigned) [Example 48B], 209 nM; under `C[C@@H]1C(=O)NCCN1C(=O)NC(c1ccc(OC2CC2)c(F)c1)c1ccc(F)c(C(F)(F)F)n1` (single isomer, unassigned) [Example 59A, (2R)-N-((R or S)-(4-cyclopropoxy-3-fluorophenyl)(5-fluoro-6-(trifluoromethyl)pyridin-2-yl)methyl)-2-methyl-3-oxopiperazine-1-carboxamide], 3.33 nM.
In the case of `C[C@@H]1C(=O)NCCN1C(=O)NC(c1ccc(OC(F)(F)F)cc1)c1ccc(F)c(C(F)(F)F)n1` (single isomer, unassigned) [Example 55B, (2R)-N-((S or R)-(5-fluoro-6-(trifluoro-methyl)pyridin-2-yl)(4-(trifluoromethoxy)phenyl)methyl)-2-methyl-3-oxopiperazine-1-carboxamide], the IC50 was 15.7 nM.
In the case of `C[C@@H]1C(=O)NCCN1C(=O)NC(c1ccc(C(F)(F)F)nc1)c1ccc(F)c(Cl)c1` (single isomer, unassigned) [Example 16A, (2R)-N-((R or S)-(3-chloro-4-fluorophenyl)(6-(trifluoromethyl)pyridin-3-yl)methyl)-2-methyl-3-oxopiperazine-1-carboxamide] it was 13.5 nM; in that of `O=C1CN(C(=O)NC(c2ccc(Cl)c(F)c2)c2ccc(F)c(C(F)(F)F)n2)CCN1` (single isomer, unassigned) [Example 54B, N-((S or R)-(4-chloro-3-fluorophenyl)(5-fluoro-6-(trifluoromethyl)pyridin-2-yl)methyl)-3-oxopiperazine-1-carboxamide], 4.14 nM; in that of `C[C@@H]1C(=O)NCCN1C(=O)NC(c1ccc(OC(F)F)nc1)c1ccc(F)c(Cl)c1` (single isomer, unassigned) [Example 73B, (2R)-N-((R or S)-(3-chloro-4-fluoro-phenyl)(6-(difluoro-methoxy)pyridin-3-yl)methyl)-2-methyl-3-oxopiperazine-1-carboxamide], 20.6 nM.
Take `C[C@@H]1C(=O)NCCN1C(=O)NC(c1cnc(C(F)(F)F)nc1)c1ccc(Cl)c(Cl)c1` (single isomer, unassigned) [Example 28B, (2R)-N-((S or R)-(3,4-dichlorophenyl)(2-(trifluoromethyl)pyrimidin-5-yl)methyl)-2-methyl-3-oxopiperazine-1-carboxamide]: the half-inhibitory concentration (IC50) worked out at 43.7 nM.
In the case of `C[C@@H]1C(=O)NCCN1C(=O)NC(c1cnc(OCC(F)(F)F)nc1)c1ccc(F)c(Cl)c1F` (single isomer, unassigned) [Example 12B] it was 501 nM; in that of `C[C@@H]1C(=O)NCCN1C(=O)NC(c1ccc(Cl)c(F)c1)c1ccc(F)c(C(F)(F)F)n1` (single isomer, unassigned) [Example 53A, (2R)-N-((R or S)-(4-chloro-3-fluoro-phenyl)(5-fluoro-6-(trifluoromethyl)pyridin-2-yl)methyl)-2-methyl-3-oxopiperazine-1-carboxamide], 68.9 nM.
